Numbers after ± are expanded uncertainties.
Conditions: Coaxial cylinder method

CCCCC [pentane]
Conditions | thermal conductivity [W/m/K]
465.4 K, 9497 kPa, Liquid | 0.07785 ± 0.003
465.4 K, 9610 kPa, Liquid | 0.07785 ± 0.003
465.4 K, 9891 kPa, Liquid | 0.07814 ± 0.003
466.27 K, 100 kPa, Gas | 0.03453 ± 0.0012
466.28 K, 100 kPa, Gas | 0.03449 ± 0.0012
466.29 K, 100 kPa, Gas | 0.03442 ± 0.0012
466.3 K, 100 kPa, Gas | 0.03439 ± 0.0012
466.7 K, 100 kPa, Gas | 0.03462 ± 0.0012
467.36 K, 11000 kPa, Liquid | 0.08067 ± 0.0031
467.36 K, 11500 kPa, Liquid | 0.08129 ± 0.0031
467.36 K, 12000 kPa, Liquid | 0.08175 ± 0.0031
467.36 K, 13000 kPa, Liquid | 0.08285 ± 0.0031
467.36 K, 13800 kPa, Liquid | 0.08362 ± 0.0032
467.36 K, 15200 kPa, Liquid | 0.08486 ± 0.0032
467.36 K, 16000 kPa, Liquid | 0.08553 ± 0.0032
467.36 K, 16500 kPa, Liquid | 0.08593 ± 0.0032
467.36 K, 17000 kPa, Liquid | 0.08638 ± 0.0032
467.36 K, 17500 kPa, Liquid | 0.08673 ± 0.0032
467.36 K, 18000 kPa, Liquid | 0.08718 ± 0.0033
467.36 K, 18500 kPa, Liquid | 0.0876 ± 0.0033
467.36 K, 19000 kPa, Liquid | 0.08803 ± 0.0033
467.36 K, 19500 kPa, Liquid | 0.08843 ± 0.0033
467.36 K, 20000 kPa, Liquid | 0.08879 ± 0.0033
467.36 K, 20500 kPa, Liquid | 0.08919 ± 0.0033
467.36 K, 21000 kPa, Liquid | 0.08956 ± 0.0033
467.36 K, 21500 kPa, Liquid | 0.08989 ± 0.0034
467.36 K, 22000 kPa, Liquid | 0.09031 ± 0.0034
467.36 K, 22500 kPa, Liquid | 0.09068 ± 0.0034
467.36 K, 23000 kPa, Liquid | 0.0911 ± 0.0034
467.36 K, 23500 kPa, Liquid | 0.09141 ± 0.0034
467.36 K, 24000 kPa, Liquid | 0.0918 ± 0.0034
467.36 K, 24500 kPa, Liquid | 0.09219 ± 0.0034
467.36 K, 25000 kPa, Liquid | 0.09258 ± 0.0034
467.36 K, 25500 kPa, Liquid | 0.09286 ± 0.0034
467.36 K, 26000 kPa, Liquid | 0.09318 ± 0.0035
467.36 K, 26500 kPa, Liquid | 0.09358 ± 0.0035
467.36 K, 27000 kPa, Liquid | 0.0939 ± 0.0035
467.36 K, 27500 kPa, Liquid | 0.09419 ± 0.0035
467.36 K, 28000 kPa, Liquid | 0.09456 ± 0.0035
467.36 K, 28500 kPa, Liquid | 0.09489 ± 0.0035
467.36 K, 29000 kPa, Liquid | 0.09522 ± 0.0035
467.36 K, 29500 kPa, Liquid | 0.09552 ± 0.0035
467.36 K, 30000 kPa, Liquid | 0.09583 ± 0.0036
467.36 K, 30500 kPa, Liquid | 0.09613 ± 0.0036
467.36 K, 31000 kPa, Liquid | 0.09634 ± 0.0036
467.36 K, 31280 kPa, Liquid | 0.09643 ± 0.0036
467.36 K, 31300 kPa, Liquid | 0.09647 ± 0.0036
467.36 K, 31340 kPa, Liquid | 0.09656 ± 0.0036
467.76 K, 100 kPa, Gas | 0.03471 ± 0.0012
468.02 K, 100 kPa, Gas | 0.03483 ± 0.0012
468.08 K, 100 kPa, Gas | 0.03457 ± 0.0012
468.57 K, 100 kPa, Gas | 0.03481 ± 0.0012
469.93 K, 100 kPa, Gas | 0.03492 ± 0.0012
470.04 K, 2036 kPa, Gas | 0.03754 ± 0.0013
470.07 K, 100 kPa, Gas | 0.03498 ± 0.0012
470.2 K, 100 kPa, Gas | 0.03485 ± 0.0012
471.68 K, 100 kPa, Gas | 0.03523 ± 0.0012
472.17 K, 1697 kPa, Gas | 0.03753 ± 0.0013
472.21 K, 100 kPa, Gas | 0.03519 ± 0.0012
472.84 K, 100 kPa, Gas | 0.03528 ± 0.0012
472.97 K, 100 kPa, Gas | 0.03526 ± 0.0012
473.01 K, 100 kPa, Gas | 0.03533 ± 0.0012
473.86 K, 100 kPa, Gas | 0.03563 ± 0.0013
474.81 K, 100 kPa, Gas | 0.03571 ± 0.0013
475.4 K, 100 kPa, Gas | 0.03567 ± 0.0013
475.7 K, 10375 kPa, Gas | 0.07726 ± 0.0027
475.7 K, 17575 kPa, Gas | 0.0849 ± 0.003
475.7 K, 19975 kPa, Gas | 0.08712 ± 0.0031
475.7 K, 24775 kPa, Gas | 0.0897 ± 0.0032
475.7 K, 29975 kPa, Gas | 0.09365 ± 0.0034
475.7 K, 40275 kPa, Gas | 0.09992 ± 0.0037
475.7 K, 48475 kPa, Gas | 0.1033 ± 0.0039
476.21 K, 100 kPa, Gas | 0.03593 ± 0.0013
478.08 K, 100 kPa, Gas | 0.03587 ± 0.0013
478.2 K, 100 kPa, Gas | 0.03595 ± 0.0013
478.5 K, 2001 kPa, Gas | 0.03835 ± 0.0013
478.5 K, 10175 kPa, Gas | 0.07793 ± 0.0027
478.5 K, 19775 kPa, Gas | 0.08695 ± 0.0031
478.5 K, 20375 kPa, Gas | 0.08696 ± 0.0031
478.5 K, 30175 kPa, Gas | 0.09387 ± 0.0034
478.5 K, 32975 kPa, Gas | 0.09616 ± 0.0035
478.5 K, 40175 kPa, Gas | 0.1002 ± 0.0037

— the NIST ThermoML archive (doi:10.1016/j.fluid.2017.12.026)
